Source: patent US9452196B2, “Pharmaceutical composition for treating medical conditions and a method for treating alimentary disorders and related diseases” (SOCIEDADE BENEFICENTE DE SENHORAS HOSPITAL SIRIO LIBANES, priority 2009, dated 2016)

How the values were obtained:
Format in all cases: in vivo, rat
male Wistar rats = assay: fat content and body weight in male Wistar rats on 63-day diet; settings: once a day for three days
male Zucker rats = assay: fat content in male Zucker rats after intraperitoneal administration; settings: intraperitoneal 50 micrograms/Kg once a day for three days
Experimental: Experiments were also conducted on genetically obese and diet-induced rats of another species. Male Zucker rats were maintained on a 12 hour light/dark cycle. The rats were divided into two groups that receive once a day for three days either intraperiotoneal administration of 50 micrograms/Kg body weight of HPW2 or saline.

diet induced obese rats = assay: insulin sensitivity in diet induced obese rats; settings: 50 micrograms/Kg and 1 mg/Kg hemopressin, FIG. 6
rats = assay: body weight and fat content after oral administration

For PVNFKWLSH [HPW2], the “Body Weight (% of Control)” value (male Wistar rats; 63-day ad libitum diet) was 95.47 ± 15.44 % of Control, the “Periepididymal Adipose Tissue Weight” value (male Wistar rats; 63-day ad libitum diet) was 4.01 ± 0.33 g and the “Retroperitoneal Adipose Tissue Weight” value (male Wistar rats; 63-day ad libitum diet) was 5.37 ± 1.11 g. The “Visceral Adipose Tissue Weight” value (male Wistar rats; 63-day ad libitum diet) was 2.63 ± 0.94 g, the “periepididymal and visceral fat content compared to saline control” value (male Wistar rats) was “significantly reduced periepididymal and visceral fat content” and the retroperitoneal fat content (male Zucker rats) was “significant reduction in retroperitoneal fat content”. For the same sequence, the insulin sensitivity (diet induced obese rats) was “significantly improved insulin sensitivity”, the “total body weight and periepididymal fat content” value (rats) was “significantly reduce” and the “Body Weight (% of Control)” value (rats; rats) was 96.71 ± 2.03 % of Control. The “Periepididymal Adipose Tissue Weight” value (rats; rats) was 7.32 ± 1.22 g, the “Retroperitoneal Adipose Tissue Weight” value (rats; rats) was 7.19 ± 1.50 g and the “Visceral Adipose Tissue Weight” value (rats; rats) was 4.28 ± 0.59 g.
